Measurements reported in US10329300B2, “Pyrazolo[3,4-d]pyrimidine compound or salt thereof” (TAIHO PHARMACEUTICAL CO., LTD., priority 2015, dated 2019).
Like-named read-outs stand apart in the source and are kept apart here.

Legend:
Type in all cases: cell-based
[1] = test system: EGFR-overexpressing highly activated human epithelioid cancer cell line A431 cells; test: Cytostatic activity against EGFR-expressing cell line A431 (CellTiter-Glo); conditions: 3-day culture, read-out: A431 cell growth inhibitory activity IC50 value
Description: Test Example 2 Measurement Test (In Vitro) of Cytostatic Activity Against HER2-Expressing Cell Line (NCI-N87) and EGFR-Expressing Cell Line (A431) and Comparison of Selectivity Thereof
(§1) HER2-overexpressing human stomach cancer cell line NCI-N87 cells were suspended in RPMI1640 medium (manufactured by Life Technologies Corp.) containing 10% fetal bovine serum. Meanwhile, EGFR-overexpressing highly activated human epithelioid cancer cell line A431 cells were suspended in DMEM, high glucose medium (manufactured by Life Technologies Corp.) containing 10% fetal bovine serum. Subsequently, each cell suspension was inoculated to each well of a 384-well flat-bottom microplate and cultured at 37° C. for 1 day in an incubator containing 5% carbon dioxide. The compound of the present invention or Comparative Example compound 1 was dissolved in DMSO, and the test compound was diluted into a concentration of 500 times the final concentration using DMSO. The solution of the test compound in DMSO was diluted with the medium used in the suspension of each cell line, and this solution was added at a final concentration of DMSO of 0.2% to each well of the cell culture plate, followed by further culture at 37° C. for 3 days in an incubator containing 5% carbon dioxide.
Rate of growth inhibition (%)=(C−T)/(C)×100 T: Luminescence intensity of a well supplemented with the test compound C: Luminescence intensity of a well not supplemented with the test compound

[2] = test system: HER2-overexpressing human stomach cancer cell line NCI-N87 cells; test: Cytostatic activity against HER2-expressing cell line NCI-N87 (CellTiter-Glo)
Description: as §1, with “The compound of the present invention or Comparative Example compound 1 was dissolved in DMSO, and the test compound was diluted into a concentration of 500 times the final concentration using DMSO.” left out

[3] = test system: HER2-overexpressing human breast cancer cell line SK-BR-3 cells; test: Cytostatic activity against HER2-expressing cell line SK-BR-3 (CellTiter-Glo); conditions: 3-day culture, read-out: SK-BR-3 cell growth inhibitory activity IC50 value
Method: HER2-overexpressing human breast cancer cell line SK-BR-3 cells were suspended in McCoy's 5a medium (manufactured by Life Technologies Corp.) containing 10% fetal bovine serum. The cell suspension was inoculated to each well of a 384-well flat-bottom microplate and cultured at 37° C. for 1 day in an incubator containing 5% carbon dioxide. The compound of the present invention was dissolved in DMSO, and the test compound was diluted into 500 times as high concentration as the final concentration using DMSO. The solution of the test compound in DMSO was diluted with the medium used in the suspension of each cell line, and this solution was added at a final concentration of DMSO of 0.2% to each well of the cell culture plate, followed by further culture at 37° C. for 3 days in an incubator containing 5% carbon dioxide.

[4] = Homo sapiens, 72 h, 3-day culture, NCI-N87, read-out: NCI-N87 cell growth inhibitory activity IC50 value

Molecule | IC50 ([1]; Homo sapiens, A-431, 72 h) | IC50 [2, 4] | also measured
C=CC(=O)N1CCC[C@@H](n2nc(C(=O)Nc3ccc(OC(=O)N(C)C)cc3OC)c3c(N)ncnc32)C1 [Example 36, (R)-4-(1-(1-acryloylpiperidin-3-yl)-4-amino-1H-pyrazolo[3,4-d]pyrimidine-3-carboxamido)-3-methoxyphenyl dimethylcarbamate] | 2.61 µM |  | IC50 ([2]; Homo sapiens, NCI-N87, 72 h, read-out: NCI-N87 cell growth inhibitory activity IC50 value (nM)): 8 nM
(R)-1-(1-acryloylpiperidin-3-yl)-4-amino-N-(4-(2-methoxy(methyl)amino-2-oxoethyl)-2-methylphenyl)-1H-pyrazolo[3,4-d]pyrimidine-3-carboxamide [Example 72] |  |  | IC50 [1]: 1.17 µM; IC50 ([2]; 3-day culture, NCI-N87, read-out: NCI-N87 cell growth inhibitory activity IC50 value): 5 nM; IC50 [3]: 0.016 µM
(R,E)-4-(4-amino-1-(1-(4-dimethylamino)but-2-enoyl)piperidin-3-yl)-1H-pyrazolo[3,4-d]pyrimidine-3-carboxamido)naphthalen-1-yl dimethyl carbamate [Example 66] |  |  | IC50 [1]: 6.04 µM
C=CC(=O)N1CCC[C@@H](n2nc(C(=O)Nc3ccc(CC(=O)N(C)C)c(Cl)c3)c3c(N)ncnc32)C1 [Example 8, (R)-1-(1-acryloylpiperidin-3-yl)-4-amino-N-(3-chloro-4-(2-(dimethylamino)-2-oxoethyl)phenyl)-1H-pyrazolo[3,4-d]pyrimidine-3-carboxamide] | 0.956 µM |  | 
C=CC(=O)N1CCC[C@@H](n2nc(C(=O)Nc3cc(C)c(CC(=O)N(C)C)cc3C)c3c(N)ncnc32)C1 [Example 39, (R)-1-(1-acryloylpiperidin-3-yl)-4-amino-N-(4-(2-(dimethylamino)-2-oxoethyl)-2,5-dimethylphenyl)-1H-pyrazolo[3,4-d]pyrimidine-3-carboxamide] | 1.8 µM | 12 nM | IC50 ([3]; Homo sapiens, 72 h): 0.024 µM

Second part, led by results:

IC50 ([1]; Homo sapiens, A-431, 72 h) | IC50 [2, 4] | Molecule | also measured
1.67 µM | 11 nM | C=CC(=O)N1CCC[C@@H](n2nc(C(=O)Nc3ccc(CC(=O)N(C)C)c4c3OCO4)c3c(N)ncnc32)C1 [Example 53, (R)-1-(1-acryloylpiperidin-3-yl)-4-amino-N-(7-(2-(dimethylamino)-2-oxoethyl)benzo[d][1,3]dioxol-4-yl)-1H-pyrazolo[3,4-d]pyrimidine-3-carboxamide] | 
2.51 µM |  | C=CC(=O)N1CC[C@@H](n2nc(C(=O)Nc3ccc(CC(=O)N(C)C)c(F)c3C)c3c(N)ncnc32)C1 [Example 56, (R)-1-(1-acryloylpyrrolidin-3-yl)-4-amino-N-(4-(2-(dimethylamino)-2-oxoethyl)-3-fluoro-2-methylphenyl)-1H-pyrazolo[3,4-d]pyrimidine-3-carboxamide] | 
 | 2380 nM | C=CC(=O)N1CCC[C@@H](n2nc(C(=O)Nc3nc4cc(F)ccc4o3)c3c(N)ncnc32)C1 [Comparative Example compound 1, (R)-1-(1-acryloylpiperidin-3-yl)-4-amino-N-(5-fluorobenzo[d]oxazol-2-yl)-1H-pyrazolo[3,4-d]pyrimidine-3-carboxamide, reference compound] | cytostatic effect in evaluation using HER2-overexpressing cell lines ([2]; HER2-overexpressing cell lines, qualitative): very low cytostatic effect; IC50 ([3]; Homo sapiens, 72 h): 1.13 µM
